Values quoted from earlier work in patent publication US9884123B2, “Ligand-targeted molecules and methods thereof” (INVICTUS ONCOLOGY PVT. LTD., priority 2012, dated 2018).
pIC50: −log10 of the molar value. Like-named read-outs stand apart in the source and are kept apart here.

Columns and labels:
[1] = test system not given; for IC50: Table 1, order of magnitude in words

Row | Compound | IC50 [1] | pIC50 ([1]; Table 1, numeric value, read-out: IC50) | Remarks: active against MDR cells too (MDR cells)
1 | CCCCCCC[C@H](O)CC[C@H](O)[C@H]1CC[C@H]([C@H]2CC[C@H]([C@H](O)CCCCCCCCCC[C@@H](O)CC3=C[C@H](C)OC3=O)O2)O1 [27-hydroxybullatacin] | Low pM | – | –
2 | CC[C@@H](/C=C(/C)[C@H]1C[C@H](OC)C[C@@H](O)C(C)(C)[C@]2(O)O[C@H](C[C@H](OC)[C@@H](O)C(=O)O1)C[C@H](OC)[C@@H]2O)CO [Peloruside A] | Low nM | – | –
3 | Cc1c[nH]c2c1[C@@]13C[C@@H]1CN(C(=O)c1cc4cc(NC(=O)c5cc6ccccc6o5)ccc4[nH]1)C3=CC2=O [Adozelesin (DC1), Adozelesin] | – | 10.70 | –
4 | Auristatins E and F | nM to | – | –
5 | COc1cc([C@@H]2c3cc4c(cc3[C@@H](O[C@@H]3O[C@@H]5CO[C@@H](c6cccs6)O[C@H]5[C@H](O)[C@H]3O)[C@H]3COC(=O)[C@H]23)OCO4)cc(OC)c1O [Teniposide] | Low nM | – | –
6 | Epothilones A and B | – | – | Active
7 | Calicheamicins | Picomolar | – | –
8 | C=C1C[C@H](C)C[C@@H]2CC=C[C@@H](C/C=C\C(=O)O[C@H]([C@@H](O)/C=C/[C@@H]3CC(C)=CCO3)C[C@@H]3O[C@H]3[C@@H](O)C1)O2 [Laulimalide] | Low nM | – | –
9 | CC(=O)O[C@@H](C)/C=C\C(=O)N[C@@H]1C[C@H](C)[C@H](C/C=C(C)/C=C/[C@H]2OC(C)(C)C[C@@]3(CO3)[C@@H]2O)O[C@@H]1C [Meamycin] | picomolar | – | Active
10 | COc1c(O)c2c(c3cc(C(=O)N4CCc5c4c(O)c(OC)c4[nH]c(C(=O)N6CC7CC78C6=CC(=O)c6[nH]cc(C)c68)cc54)[nH]c13)CCN2C(N)=O (stereo not shown) [CC-1065] | nM to | – | –
11 | COc1cccc2c1C(=O)c1c(O)c3c(c(O)c1C2=O)C[C@@](O)(C(=O)CO)C[C@@H]3O[C@H]1C[C@H](N)[C@H](O)[C@H](C)O1 [Doxorubucin] | High nM | – | –
12 | Maytansinoid [Maytansinoid (DM1 and DM4)] | nM to | – | –
